Experimental data taken from US12391648B2, “Pyridyloxy thioester derivative and preparation method therefor, herbicidal composition, and application” (Qingdao Kingagroot Chemical Compound Co., Ltd., priority 2018, dated 2025).

What was measured:
Experiment in all cases: Post-emergence test experiment (Table 3, 1000 g/ha)
Type in all cases: in vivo
Details in all cases: post-emergence spray, after 3 weeks, fresh weight inhibition
Galium spurium = tested on: Galium spurium
Procedure, shortened: (§1)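 Activity graded levels 0-5 by fresh-weight inhibition (level 5 above 85%, level 0 below 5%), assessed 3 weeks after treatment. Plants grown in greenhouse pots were sprayed post-emergence at 2-3 leaves using acetone/tween-80 solutions with methyl oleate synergist (1.5 L/ha).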

Abutilon theophrasti = tested on: Abutilon theophrasti
Procedure, shortened: as §1

Monochoria vaginalis = tested on: Monochoria vaginalis
Procedure, shortened: as §1

Setaria viridis = tested on: Setaria viridis
Procedure, shortened: as §1

Digitaria sanguinalis = tested on: Digitaria sanguinalis
Procedure, shortened: as §1

Leptochloa chinensis = tested on: Leptochloa chinensis
Procedure, shortened: as §1

SMILES | Activity level (growth inhibition rate) Galium spurium (Galium spurium) | Activity level (growth inhibition rate) Abutilon theophrasti (Abutilon theophrasti) | Activity level (growth inhibition rate) Monochoria Vaginalis (Monochoria vaginalis) | Activity level (growth inhibition rate) Setaria viridis (Setaria viridis) | Activity level (growth inhibition rate) Digitaria sanguinalis (Digitaria sanguinalis) | Activity level (growth inhibition rate) Leptochloa chinensis (Leptochloa chinensis)
CCC(C)CCSC(=O)C(C)Oc1nc(F)c(Cl)c(N)c1Cl (stereo not drawn) [Compound 153] | 5 (Level 5: the growth inhibition rate is greater than 85%) | 5 (Level 5: the growth inhibition rate is greater than 85%) | 5 (Level 5: the growth inhibition rate is greater than 85%) | 5 (Level 5: the growth inhibition rate is greater than 85%) | 5 (Level 5: the growth inhibition rate is greater than 85%) | 5 (Level 5: the growth inhibition rate is greater than 85%)
CCCCSC(=O)C(C)Oc1nc(F)c(Cl)c(N)c1Cl (stereo not drawn) [Compound 70] | 5 (Level 5: the growth inhibition rate is greater than 85%) | 5 (Level 5: the growth inhibition rate is greater than 85%) | 5 (Level 5: the growth inhibition rate is greater than 85%) | 5 (Level 5: the growth inhibition rate is greater than 85%) | 5 (Level 5: the growth inhibition rate is greater than 85%) | 5 (Level 5: the growth inhibition rate is greater than 85%)
COSC(=O)C(C)Oc1nc(F)c(Cl)c(N)c1Cl (stereo not drawn) [Compound 83] | 5 (Level 5: the growth inhibition rate is greater than 85%) | 5 (Level 5: the growth inhibition rate is greater than 85%) | 5 (Level 5: the growth inhibition rate is greater than 85%) | 5 (Level 5: the growth inhibition rate is greater than 85%) | 5 (Level 5: the growth inhibition rate is greater than 85%) | 5 (Level 5: the growth inhibition rate is greater than 85%)
CCCCCCCCCCCSC(=O)C(C)Oc1nc(F)c(Cl)c(N)c1Cl (stereo not drawn) [Compound 142] | 5 (Level 5: the growth inhibition rate is greater than 85%) | 5 (Level 5: the growth inhibition rate is greater than 85%) | 5 (Level 5: the growth inhibition rate is greater than 85%) | 5 (Level 5: the growth inhibition rate is greater than 85%) | 5 (Level 5: the growth inhibition rate is greater than 85%) | 5 (Level 5: the growth inhibition rate is greater than 85%)
CC(Oc1nc(F)c(Cl)c(N)c1Cl)C(=O)SC(N)C(=O)O (stereo not drawn) [Compound 103] | 5 (Level 5: the growth inhibition rate is greater than 85%) | 5 (Level 5: the growth inhibition rate is greater than 85%) | 5 (Level 5: the growth inhibition rate is greater than 85%) | 5 (Level 5: the growth inhibition rate is greater than 85%) | 5 (Level 5: the growth inhibition rate is greater than 85%) | 5 (Level 5: the growth inhibition rate is greater than 85%)
CC(Oc1nc(F)c(Cl)c(N)c1Cl)C(=O)SC1CCCO1 (stereo not drawn) [Compound 106] | 5 (Level 5: the growth inhibition rate is greater than 85%) | 5 (Level 5: the growth inhibition rate is greater than 85%) | 5 (Level 5: the growth inhibition rate is greater than 85%) | 5 (Level 5: the growth inhibition rate is greater than 85%) | 5 (Level 5: the growth inhibition rate is greater than 85%) | 5 (Level 5: the growth inhibition rate is greater than 85%)
